# Measured values: paper PMC9386326, “Dysregulated glucuronic acid metabolism exacerbates hepatocellular carcinoma progression and metastasis through the TGFβ signalling pathway” (Clinical and Translational Medicine, 2022)
# Target: T1, PTBP3 (Homo sapiens, UniProt O95758)
# T1 construct: endogenous full-length protein in human hepatoma (Huh7) cells / cell lysates
# Test: CETSA (cell lysate, immunoblot) and DARTS (pronase)
# Type: biochemical
# Conditions: endogenous PTBP3 in Huh7 cells / lysates; stabilisation, authors call it potential direct binding
# T1 sequence (O95758 whole entry): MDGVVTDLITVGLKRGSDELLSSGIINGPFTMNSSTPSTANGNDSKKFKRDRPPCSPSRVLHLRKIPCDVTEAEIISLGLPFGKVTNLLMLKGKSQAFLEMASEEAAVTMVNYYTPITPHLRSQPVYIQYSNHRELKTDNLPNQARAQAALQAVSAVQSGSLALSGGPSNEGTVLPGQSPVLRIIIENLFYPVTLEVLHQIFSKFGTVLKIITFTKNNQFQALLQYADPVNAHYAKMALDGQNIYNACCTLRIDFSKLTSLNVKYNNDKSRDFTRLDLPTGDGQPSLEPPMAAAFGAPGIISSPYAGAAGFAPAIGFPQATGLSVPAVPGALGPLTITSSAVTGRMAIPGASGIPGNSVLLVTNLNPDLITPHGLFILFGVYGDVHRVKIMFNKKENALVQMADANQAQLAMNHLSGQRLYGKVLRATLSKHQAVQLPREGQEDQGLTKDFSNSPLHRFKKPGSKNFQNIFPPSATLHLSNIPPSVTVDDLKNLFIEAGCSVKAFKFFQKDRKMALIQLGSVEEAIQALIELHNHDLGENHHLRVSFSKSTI
compound,measurement,value
O=C(O)[C@H]1O[C@H](OP(=O)(O)OP(=O)(O)OC[C@H]2O[C@@H](n3ccc(=O)[nH]c3=O)[C@H](O)[C@@H]2O)[C@H](O)[C@@H](O)[C@@H]1O [UDP-GlcUA],"CETSA (cell lysate, immunoblot) and DARTS (pronase)","PTBP3 protein stability is enhanced upon UDP‐GlcUA treatment, suggesting a potential direct binding"
